Assay results taken from PMC3045849 (Bioorganic & medicinal chemistry letters, 2009).
pIC50: −log10 of the molar value. Non-standard residues stand in square brackets, D forms with d. Residues, ends and D or L forms follow the SMILES beside them. *: point of attachment. Asu = N[C@@H](CCCCCC(=O)O)C(=O)O; NH(2-NH2-phenyl) = Nc1ccccc1N*

Tests used:
[1] = system: human lymphoblastoid cell line (GM15850); test: Acetylation levels of endogenous histone H3 by western blot; assay type: cell-based; conditions: 20 µM, 48 h incubation, GM15850 cells
recombinant human HDAC1 = recombinant human HDAC1 (Homo sapiens, UniProt Q13547); test: Inhibition of recombinant HDAC1; assay type: biochemical
Sequence of recombinant human HDAC1 (Q13547 whole entry): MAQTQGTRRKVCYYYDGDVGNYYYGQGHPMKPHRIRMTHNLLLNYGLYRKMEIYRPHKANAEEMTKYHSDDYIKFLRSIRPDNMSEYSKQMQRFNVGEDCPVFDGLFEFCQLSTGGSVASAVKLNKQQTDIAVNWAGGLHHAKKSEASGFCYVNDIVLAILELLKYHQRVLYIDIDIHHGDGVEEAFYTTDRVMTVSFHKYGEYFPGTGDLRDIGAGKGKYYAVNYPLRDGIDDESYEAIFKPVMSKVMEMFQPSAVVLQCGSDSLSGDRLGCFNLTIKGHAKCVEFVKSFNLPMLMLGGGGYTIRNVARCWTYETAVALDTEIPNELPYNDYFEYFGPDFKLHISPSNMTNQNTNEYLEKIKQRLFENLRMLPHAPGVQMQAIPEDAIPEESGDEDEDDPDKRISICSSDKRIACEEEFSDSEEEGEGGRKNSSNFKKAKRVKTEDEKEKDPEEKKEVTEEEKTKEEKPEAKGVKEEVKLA

recombinant human HDAC3 = recombinant human HDAC3 (Homo sapiens, UniProt O15379); test: Inhibition of recombinant HDAC3; assay type: biochemical
Sequence of recombinant human HDAC3 (O15379 whole entry): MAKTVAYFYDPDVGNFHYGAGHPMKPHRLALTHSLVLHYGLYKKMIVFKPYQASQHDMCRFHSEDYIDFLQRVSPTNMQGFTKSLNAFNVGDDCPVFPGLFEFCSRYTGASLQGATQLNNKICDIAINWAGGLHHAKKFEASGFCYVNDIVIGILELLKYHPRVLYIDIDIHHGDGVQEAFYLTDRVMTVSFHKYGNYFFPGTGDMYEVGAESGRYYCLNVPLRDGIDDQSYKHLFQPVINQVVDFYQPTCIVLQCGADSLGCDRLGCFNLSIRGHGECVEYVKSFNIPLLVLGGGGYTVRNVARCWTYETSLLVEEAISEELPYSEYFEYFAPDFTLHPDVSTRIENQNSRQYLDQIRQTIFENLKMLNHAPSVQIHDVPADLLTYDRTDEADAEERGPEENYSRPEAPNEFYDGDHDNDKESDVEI
Sequence of recombinant human HDAC3 (Q9Y618 395-489 partner limits assumed): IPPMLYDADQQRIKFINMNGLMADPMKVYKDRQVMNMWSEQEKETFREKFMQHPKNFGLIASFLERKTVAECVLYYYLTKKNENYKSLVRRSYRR

| Structure (SMILES) | effect on acetylation of endogenous histone H3 [1] | pIC50 (recombinant human HDAC1) | pIC50 (recombinant human HDAC3) |
| --- | --- | --- | --- |
| Cc1ccc(C(=O)NCC(=O)NCCC(=O)Nc2ccccc2N)cc1 [compound 15] | relatively strong effect |  |  |
| N=C(N)NCCC[C@H](N)C(=O)NCC(=O)N[C@@H](CCCCCC(=O)Nc1ccccc1N)C(=O)Nc1ccccc1N [compound 10] | relatively stronger effects |  |  |
| N=C(N)NCCC[C@H](N)C(=O)NCC(=O)N[C@@H](CCCCCC(=O)Nc1ccccc1N)C(=O)NCC(=O)O [compound 13] (H-RG[Asu](NH(2-NH2-phenyl))G-OH; N-terminus and C-terminus assumed) | no effect | 3.27 | 4.16 |
| Cc1ccc(C(=O)N[C@@H](CCCNC(=N)N)C(=O)NCCC(=O)Nc2ccccc2N)cc1 [compound 16] | no such effect |  |  |
